Tested on: T-47D spheroids with HUVEC/MSC, viability
Assay: Anticancer human tumor T-47D cell line growth inhibition [PI3K];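 also: spheroids exposed to agents for seven days before reading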;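 as to viability, T/C: percent of DMSO vehicle control luminescence so 100% = untreated growth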
Details: for IC50: curve of first compound; for viability, T/C: stronger effect = lower value
How it was run: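 Tumor cells grown as multi-cell spheroids with HUVEC endothelial cells and MSC fibroblast-like stroma were treated with targeted agents combined with inavolisib, alpelisib, duvelisib or copanlisib. Doses fell in half-log steps from near clinical Cmax, else from 10 microM. Viability was measured.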

[1] = second compound 0.00316 µM, first compound 0.0316 µM
[2] = second compound 0.00316 µM, first compound 0.1 µM
[3] = second compound 0.00316 µM, first compound 0.316 µM
[4] = second compound 0.00316 µM, first compound 1 µM
[5] = second compound 0.00316 µM, first compound 3.16 µM
[6] = second compound 0.00316 µM, first compound 10 µM
[7] = second compound 0.01 µM, first compound 0.0316 µM
[8] = second compound 0.01 µM, first compound 0.1 µM
[9] = second compound 0.01 µM, first compound 0.316 µM
[10] = second compound 0.01 µM, first compound 1 µM
[11] = second compound 0.01 µM, first compound 3.16 µM
[12] = second compound 0.01 µM, first compound 10 µM
[13] = second compound 0.0316 µM, first compound 0.0316 µM
[14] = second compound 0.0316 µM, first compound 0.1 µM
[15] = second compound 0.0316 µM, first compound 0.316 µM
[16] = second compound 0.0316 µM, first compound 1 µM
[17] = second compound 0.0316 µM, first compound 3.16 µM
[18] = second compound 0.0316 µM, first compound 10 µM
[19] = second compound 0.1 µM, first compound 0.0316 µM
[20] = second compound 0.1 µM, first compound 0.1 µM
[21] = second compound 0.1 µM, first compound 0.316 µM
[22] = second compound 0.1 µM, first compound 1 µM
[23] = second compound 0.1 µM, first compound 3.16 µM
[24] = second compound 0.1 µM, first compound 10 µM
[25] = second compound 0.316 µM, first compound 0.0316 µM
[26] = second compound 0.316 µM, first compound 0.1 µM
[27] = second compound 0.316 µM, first compound 0.316 µM
[28] = second compound 0.316 µM, first compound 1 µM
[29] = second compound 0.316 µM, first compound 3.16 µM
[30] = second compound 0.316 µM, first compound 10 µM
[31] = second compound 1 µM, first compound 0.0316 µM
[32] = second compound 1 µM, first compound 0.1 µM
[33] = second compound 1 µM, first compound 0.316 µM
[34] = second compound 1 µM, first compound 1 µM
[35] = second compound 1 µM, first compound 3.16 µM
[36] = second compound 1 µM, first compound 10 µM

C[C@@H](NC(=O)c1ncnc(N)c1Cl)c1ncc(C(=O)Nc2cc(C(F)(F)F)c(Cl)cn2)s1 + CC(Nc1ccc2c(c1)OCCn1cc(N3C(=O)OCC3C(F)F)nc1-2)C(N)=O
IC50 (second compound 0.00316 µM): > 10 µM
IC50 (second compound 0.01 µM): > 10 µM
IC50 (second compound 0.0316 µM): > 10 µM
IC50 (second compound 0.1 µM): > 10 µM
IC50 (second compound 0.316 µM): > 10 µM
IC50 (second compound 1 µM): > 10 µM
viability, T/C [1]: 110%
viability, T/C [2]: 92.2%
viability, T/C [3]: 87.9%
viability, T/C [4]: 79.2%
viability, T/C [5]: 94.5%
viability, T/C [6]: 99.3%
viability, T/C [7]: 104%
viability, T/C [8]: 85.3%
viability, T/C [9]: 87.4%
viability, T/C [10]: 83.3%
viability, T/C [11]: 113%
viability, T/C [12]: 101%
viability, T/C [13]: 95.2%
viability, T/C [14]: 87.3%
viability, T/C [15]: 83.8%
viability, T/C [16]: 86.2%
viability, T/C [17]: 91.4%
viability, T/C [18]: 94.7%
viability, T/C [19]: 79.8%
viability, T/C [20]: 82%
viability, T/C [21]: 83.3%
viability, T/C [22]: 97.1%
viability, T/C [23]: 97.4%
viability, T/C [24]: 94.4%
viability, T/C [25]: 69.4%
viability, T/C [26]: 79.6%
viability, T/C [27]: 75.2%
viability, T/C [28]: 69.8%
viability, T/C [29]: 71.8%
viability, T/C [30]: 74.3%
viability, T/C [31]: 52.9%
viability, T/C [32]: 53.4%
viability, T/C [33]: 65%
viability, T/C [34]: 57.9%
viability, T/C [35]: 62.3%
viability, T/C [36]: 65.8%

CC(Cn1ccc(-c2ccc(C#N)c(Cl)c2)n1)NC(=O)c1cc(C(C)O)[nH]n1 (stereo unspecified) + Cc1nc(NC(=O)N2CCCC2C(N)=O)sc1-c1ccnc(C(C)(C)C(F)(F)F)c1
IC50 (second compound 0.0316 µM): > 10 µM
IC50 (second compound 0.1 µM): > 10 µM
IC50 (second compound 0.316 µM): > 10 µM
IC50 (second compound 1 µM): > 10 µM
IC50 (second compound 3.16 µM): > 10 µM
IC50 (second compound 10 µM): < 0.0316 µM
viability, T/C [13]: 97%
viability, T/C [14]: 103%
viability, T/C [15]: 118%
viability, T/C [16]: 84%
viability, T/C [17]: 88.8%
viability, T/C [18]: 63.6%
viability, T/C [19]: 109%
viability, T/C [20]: 88.2%
viability, T/C [21]: 91.8%
viability, T/C [22]: 90.9%
viability, T/C [23]: 79.5%
viability, T/C [24]: 67.9%
viability, T/C [25]: 100%
viability, T/C [26]: 101%
viability, T/C [27]: 93.8%
viability, T/C [28]: 96.8%
viability, T/C [29]: 85.7%
viability, T/C [30]: 66.6%
viability, T/C [31]: 95.5%
viability, T/C [32]: 95.8%
viability, T/C [33]: 84.4%
viability, T/C [34]: 87.6%
viability, T/C [35]: 85%
viability, T/C [36]: 63.2%
viability, T/C (second compound 3.16 µM, first compound 0.0316 µM): 82.8%
viability, T/C (second compound 3.16 µM, first compound 0.1 µM): 73.4%
viability, T/C (second compound 3.16 µM, first compound 0.316 µM): 61%
viability, T/C (second compound 3.16 µM, first compound 1 µM): 65.8%
viability, T/C (second compound 3.16 µM, first compound 3.16 µM): 63.1%
viability, T/C (second compound 3.16 µM, first compound 10 µM): 50.4%
viability, T/C (second compound 10 µM, first compound 0.0316 µM): 36%
viability, T/C (second compound 10 µM, first compound 0.1 µM): 42.3%
viability, T/C (second compound 10 µM, first compound 0.316 µM): 44.2%
viability, T/C (second compound 10 µM, first compound 1 µM): 45.5%
viability, T/C (second compound 10 µM, first compound 3.16 µM): 36.8%
viability, T/C (second compound 10 µM, first compound 10 µM): 37.9%

CC1(C)CCC(Nc2ncc(C(F)(F)F)c(-c3c[nH]c4c(P(C)(C)=O)c(C#N)ccc34)n2)CN1 (stereo unspecified) + CC(Nc1ccc2c(c1)OCCn1cc(N3C(=O)OCC3C(F)F)nc1-2)C(N)=O
IC50 (second compound 0.00316 µM): > 10 µM
IC50 (second compound 0.01 µM): > 10 µM
IC50 (second compound 0.0316 µM): 5.84 µM
IC50 (second compound 0.1 µM): 4.42 µM
IC50 (second compound 0.316 µM): < 0.0316 µM
IC50 (second compound 1 µM): < 0.0316 µM
viability, T/C [1]: 66.4%
viability, T/C [2]: 70%
viability, T/C [3]: 59.1%
viability, T/C [4]: 73.5%
viability, T/C [5]: 76.9%
viability, T/C [6]: 48.8%
viability, T/C [7]: 72.3%
viability, T/C [8]: 68.3%
viability, T/C [9]: 67.5%
viability, T/C [10]: 72.3%
viability, T/C [11]: 82.4%
viability, T/C [12]: 47.6%
viability, T/C [13]: 65.4%
viability, T/C [14]: 68.3%
viability, T/C [15]: 60.2%
viability, T/C [16]: 68.7%
viability, T/C [17]: 67%
viability, T/C [18]: 36.2%
viability, T/C [19]: 62%
viability, T/C [20]: 65.2%
viability, T/C [21]: 46.3%
viability, T/C [22]: 47.3%
viability, T/C [23]: 61.4%
viability, T/C [24]: 34.2%
viability, T/C [25]: 53.1%
viability, T/C [26]: 42.6%
viability, T/C [27]: 37.8%
viability, T/C [28]: 36.2%
viability, T/C [29]: 40.4%
viability, T/C [30]: 17.1%
viability, T/C [31]: 40.8%
viability, T/C [32]: 30.8%
viability, T/C [33]: 29.7%
viability, T/C [34]: 29.5%
viability, T/C [35]: 26.4%
viability, T/C [36]: 6.28%
